We go through one compound from patent publication US20080081078A1, “Prevention of Cell Proliferation by Inhibiting Myosin Light Chain Kinase” (The Board of Trustees of the University of Illinois, priority 2006, published 2008).

pEC50: −log10 of the molar value. Read-outs that look alike come from different tables or passages of the source.

For data set [1], the system named is Mm5MT mouse mammary cancer cells. The experiment in a line: Annexin V / PI flow cytometry apoptosis assay in Mm5MT cells. It counts as cell-based. The procedure:
The Mm5MT mouse mammary adenocarcinoma cancer cell line was obtained from American Type Culture Collection (ATCC, Manassas, Va., USA) and was maintained in DMEM medium supplemented with 10% fetal bovine serum (FBS) and 100 U/ml penicillin, 100 μg/ml streptomycin. The MatLy-Lu (MLL) sub-line of the Dunning R-3327 prostate adenocarcinoma (graciously provided by B. Lokeshwar, University of Miami) (Lokeshwar et al., Int. J. Cancer 2002; 98:297-309) was maintained in RPMI1640 medium supplemented with 10% FBS, 250 nM dexamethasone, 100 U/ml penicillin and 100 μg/ml streptomycin.
Mm5MT or MLL cells (200,000 cells per well) were seeded in 6-well dishes one day before drug treatment and cultured as described above. On the day of the experiment, media was changed to DMEM supplemented with 0.5% FBS and the cells were treated with drugs as defined by the specific experimental protocol. ML-7 (Biomol, Plymouth Meeting, Pa.) was incubated with cells for 16 h when used alone. When used in combination with etoposide, ML-7 was added to cells 2 h before adding the indicated concentration of etoposide (Calbiochem, La Jolla, Calif.) and the cells were incubated with ML-7 and etoposide for an additional 16 h. The cells were then treated with trypsin, washed twice with cold PBS and re-suspended in 100 μl of buffer containing 10 mM Hepes, pH 7.4, 140 mM NaCl and 2.5 mM CaCl2 (binding buffer). […] Next, 400 μl of binding buffer was added per sample and the cells were analyzed cytofluorometrically using a Coulter Epics Elite ESP flow cytometer (Ex: 488 nm, Em: 585 nm). At least 10,000 cells were counted per analysis and cells that stained positive for annexin V and PI were judged to be apoptotic.
Cells were grown in culture dishes in Dulbecco's Modified Eagle Medium (Gibco BRL, Gaithersburg, Md.) supplemented with 10% FBS and 1% penicillin and streptomycin. […] The floating and attached cells were combined and analyzed using conventional methods.
To quantify apoptosis, cells were washed twice with cold PBS, resuspended in 100 μl of 10 mM Hepes, pH 7.4, 140 mM NaCl, 2.5 mM CaCl2 (Binding Buffer). […] After incubation, 400 μl of binding buffer was added per sample and cells were analyzed cytofluorimetrically using a Coulter Epics Elite ESP flow cytometer (excitation wavelength: 488 nm, emission wavelength: 585 nm). At least 10,000 cells were counted per analysis and cells that stained positive for Annexin V and PI were considered apoptotic.
The combined effects of ML-7 and etoposide to induce apoptosis in mouse Mm5MT mammary cancer cells was determined by pre-treating cells with vehicle (FIG. 9, open bar) or 10 μM ML-7 (shaded bar) for 2 h. Varying concentrations of etoposide (1-1000 μM) were then added and apoptosis was quantified 16 h later. […]

The subject of data set [2] is MLC-P. The experiment in a line: MLC-P by urea/glycerol gel immunoblotting in MLL cells. The class given is cell-based, rat. Particulars: 5 μM ML-7, 30 μM etoposide or both. A general note: Immunoblotting shows a protein as a band on a membrane.
Data set [3] concerns Mm5MT cells. The procedure:
To investigate the anticancer activity of ML-7 in vivo, Mm5MT cells grown in culture were harvested immediately before injection into syngeneic MMTV-C3H/HeN mice. Cells were washed to remove serum and 10^6 cells were resuspended in 100 μl of serum-free DMEM. Healthy, MMTV-free female mice (14-20 weeks old) were anesthetized with ether and 10^6 cells were injected subcutaneously into the right flank. The mice were randomly divided into four groups of five mice each, and treated with vehicle, ML-7, etoposide or ML-7 plus etoposide. […] To deliver ML-7, a small horizontal incision was made in the interscapular area and a 200 μl osmotic pump (Alzet, Cupertino, Calif.) filled with either 27 mM ML-7 in 50% DMSO or 50% DMSO (vehicle control) was implanted and the wound closed. When given, 25 mg/kg etoposide was injected intraperitoneally on the first 3 days of every week for 4 weeks (days 7-9, 14-16, 21-23 and 28-30). The mice were sacrificed with ether after 4 weeks of drug administration and tumors were removed, weighed and processed for analysis.
Excised tumors were gently patted dry and weighed using a Mettler digital balance. Tumors were sectioned into 2 mm slices, fixed in 10% neutral buffered formalin, routinely processed and embedded in paraffin. […] Photomicrographs documenting the entire section were collected and areas of necrotic and viable tumor were determined using the manual tracing tools within MetaMorph 6.2 (Universal Imaging Corporation, Downingtown, Pa.).

Consider `COc1cc([C@@H]2c3cc4c(cc3[C@@H](O[C@@H]3O[C@@H]5CO[C@@H](C)O[C@H]5[C@H](O)[C@H]3O)[C@H]3COC(=O)[C@H]23)OCO4)cc(OC)c1O` [etoposide], for which the pEC50 in data set [1] (etoposide alone, extrapolation (FIG. 8), read-out: concentration of etoposide required to induce apoptosis in 50% of the cells) was approximately 3.52; in data set [1] (minus ML-7, curve fitting (FIG. 9), read-out: concentration of etoposide required for inducing apoptosis in 50% of the cells), 3.24; in data set [1] (plus 10 μM ML-7 (2 h pre-treatment), curve fitting (FIG. 9), read-out: concentration of etoposide required for inducing apoptosis in 50% of the cells), 4.60; in data set [1] (plus ML-7 (10 μM), extrapolation (FIG. 8), read-out: concentration of etoposide required to induce apoptosis in 50% of the cells), approximately 4.70. Besides, the MLC-P result in data set [2] was “smaller decrease in MLC-P”. Moreover, the “tumor necrosis (histology)” value in data set [3] (FIG. 14B) was “Limited areas of necrosis”. Also, the tolerability entry in data set [3] (mouse, in vivo) is “without visible signs of discomfort”. The tumor growth result in data set [3] (single agents vs vehicle, only the etoposide effect statistically significant) was “decreased tumor growth”.
